Experimental data as given in paper PMC8587151, “Dibenzofuran Derivatives Inspired from Cercosporamide as Dual Inhibitors of Pim and CLK1 Kinases” (Molecules, 2021).
Where “and” joins values, the source holds several entries; their conditions need not be identical. Identical values can stand only once. Like-named read-outs stand apart in the source and are kept apart here.

How the values were obtained:
HsPim-1 = target: T1, HsPim-1 (Homo sapiens, UniProt P11309); experiment: Kinase assay, luminescent ADP-Glo, 10 µM ATP; type: biochemical; conditions: ADP-Glo, 10 µM ATP
T1 construct: made in house; host or cells: Escherichia coli BL21 DE3 pLysS
Procedure: (§1) The synthesized compounds were tested using a luminescence-based assay against a panel of nine kinases: Pim-1, Pim-2, CDK5/p25, CDK9/CyclinT, Haspin, CK1ε, and GSK3β (from human); DYRK1A (from Rattus norvegicus); and CLK1 (from Mus musculus).
(§2) Kinase enzymatic activities were assayed with 10 µM ATP in 384-well plates using the luminescent ADP-Glo^TM assay (Promega, Madison, WI, USA) according to the recommendations of the manufacturer (see [56] for details on this method). The transmitted signal was measured using the Envision (PerkinElmer, Waltham, MA, USA) microplate luminometer and expressed in relative light unit (RLU). In order to determine the half maximal inhibitory concentration (IC50), the assays were performed in duplicate in the absence or presence of increasing doses of the tested compounds. GraphPad Prism6 software (GraphPad Software, San Diego, CA, USA) was used to fit dose–response curves and to determine the IC50 values. Kinase activities are expressed in % of maximal activity, i.e., measured in the absence of inhibitor. Peptide substrates were obtained from Proteogenix (Schiltigheim, France).
(§3) For kinases expressed in bacteria, the Escherichia coli BL21 DE3 pLysS strain (Invitrogen, ThermoFisher Scientific, Waltham, MA, USA) was transformed with pGEX-2T-1 (Sigma-Aldrich, St. Louis, MO, USA) containing the coding region of the corresponding kinase. For kinases expressed in Sf9 insect cells, the coding region of the corresponding kinase was cloned in pFastBac^TM vector. Purification of the recombinant kinases was performed following the protocol “Bac-to-Bac® Baculovirus Expression System” provided by the manufacturer (Invitrogen, ThermoFisher Scientific, Waltham, MA, USA).
(§4) To validate the kinase assay, model inhibitors were used for each tested enzyme: Staurosporine from Streptomyces sp. (#S5921, purity ≥ 95%, Sigma-Aldrich) for HsCK1ε; Indirubin-30-oxime (#I0404, purity ≥ 98%, Sigma-Aldrich) for HsGSK-3β, HsPim-1 and 2, human cyclin-dependent kinases, RnDYRK1A and MmCLK1; CHR-6494 (#SML0648, purity ≥ 98%, Sigma-Aldrich) for Haspin.

MV4-11 cells = experiment: MTT cell proliferation assay; type: cell-based, human; conditions: mean ± SEM; for IC50: Homo sapiens, MV4-11, 48 h
Excerpt: (§5) Various types of hematological malignancies were selected for in vitro testing: the human acute myeloid leukemia (AML) cell line MV4-11, and the human chronic myeloid leukemia (CML) cell lines KU812 and K562. Indeed, Pim kinases are overexpressed in a wide range of hematopoietic malignancies. Solid tumors were also included in the panel of tested cell lines: MCF-7 (human breast adenocarcinoma), HT-29 (human colon adenocarcinoma), and HeLa (human cervical cancer) cells. Cytotoxic effects were evaluated using an MTT assay, and living cells were also counted with the trypan blue dye exclusion method for MV4-11, KU812, and K562 cells.
(§6) MV4-11, K562, and KU812 cell lines were obtained from the Deutshe Sammlung von Mikroorganismens und Zellkulturen (DSMZ) and maintained according to the supplier’s recommendations. All cell lines were cultured in RPMI, with 10% fetal bovine serum, 1% glutamine, and 1% penicillin/ streptomycin at 37 °C and 5% CO2.
(§7) MV4-11, K562, and KU812 cells’ viability was studied using a MTT cell proliferation assay.
(§8) MV4-11, K562, and KU812 cells were incubated with 10 μL of MTT working solution (5 g/L of methylthiazolyldiphenyl-tetrazolium bromide from Sigma Aldrich, Lyon, France) for 4 h. Cells were then lysed overnight at 37 °C with 100 μL of 10% SDS and 0.003% HCl. Optical density (OD) at 570 nm was measured using a spectrophotometer CLARIOstar® (BMG Labtech, Offenburg, Germany). Living cells were also counted with the trypan blue dye exclusion method. […] Data were collected from at least three independent experiments and the values reported are means ± standard errors of the mean (SEM).

K562 cells = experiment: MTT cell proliferation assay; type: cell-based; conditions: Homo sapiens, 48 h, mean ± SEM
Excerpt: as §5, §6, §7, §8

KU812 cells = experiment: MTT cell proliferation assay; type: cell-based; conditions: Homo sapiens, 48 h, mean ± SEM
Excerpt: as §5, §6, §7, §8

HeLa cells = experiment: MTT cytotoxicity assay; type: cell-based; conditions: Homo sapiens, 72 h
Excerpt: as §5
(§9) The cancer cell lines MCF-7, HT-29, and HeLa were obtained from Cell Bank of Rio de Janeiro, Brazil, and were grown in RPMI-1640 medium and L929 cells were grown in Dulbecco’s Modified Eagle’s Medium (DMEM). Both media were supplemented with fetal bovine serum (FBS) (10% of the final concentration) followed by treatment with penicillin and streptomycin as antibiotics (1% of the final concentration). The crude was incubated in the presence of CO2 atmosphere (5%) for 24 h with the temperature monitored and maintained at 37 °C.
(§10) MCF-7, HT-29, HeLa, and L929 cells (3×10^5 cells/mL) were plated in 96-well plates and incubated in the presence of CO2 atmosphere (5%) for 24 h at 37 °C. […] Then, 25 μL of MTT (5 mg/mL in PBS) were added to each well and the plates were left for another 3 h in the incubator at 37 °C and at the end of this period, the supernatant was aspirated. To perform the reading, 100 μL of dimethylsulfoxide (DMSO) were added in each well for the dissolution of the formazan crystals. The amount of formazan was measured by reading the plate at 560 nm absorbance. […] Each sample was tested in triplicate in two independent experiments.

MCF-7 cells = experiment: MTT cytotoxicity assay; type: cell-based; conditions: Homo sapiens, MCF7, 72 h
Excerpt: as §5, §9, §10

L929 cells = experiment: MTT assay, in vitro toxicity on normal cells; type: cell-based; conditions: 72 h, normal mouse fibroblasts
Excerpt: as §5, §9, §10

HsCDK5/p25 = target: T2, HsCDK5/p25 (Homo sapiens, UniProt Q00535); experiment: Kinase assay, luminescent ADP-Glo, 10 µM ATP; type: biochemical; conditions: duplicate, read-out: Kinase Enzymatic IC50 CDK5/p25
T2 construct: made in house; host or cells: Escherichia coli BL21 DE3 pLysS
Procedure: as §1, §2, §3, §4

HsCDK9/CyclinT = target: T3, HsCDK9/CyclinT (Homo sapiens, UniProt P50750); experiment: Kinase assay, luminescent ADP-Glo, 10 µM ATP; type: biochemical; conditions: duplicate, read-out: Kinase Enzymatic IC50 CDK9/CyclinT
T3 construct: made in house; host or cells: Sf9 insect cells (baculovirus, pFastBac)
Procedure: as §1, §2, §3, §4

HsPim-2 = target: T4, HsPim-2 (Homo sapiens, UniProt Q9P1W9); experiment: Kinase assay, luminescent ADP-Glo, 10 µM ATP; type: biochemical; conditions: mean of n ≥ 3, read-out: IC50 Pim-2
T4 construct: made in house; host or cells: Escherichia coli BL21 DE3 pLysS
Procedure: as §1, §2, §3, §4

MmCLK1 = target: T5, MmCLK1 (Mus musculus, UniProt P22518); experiment: Kinase assay, luminescent ADP-Glo, 10 µM ATP; type: biochemical; conditions: ADP-Glo, 10 µM ATP, duplicate; read-out: Kinase Enzymatic IC50 CLK1
T5 construct: made in house; host or cells: Escherichia coli BL21 DE3 pLysS
Procedure: as §1, §2, §3, §4

[1] = Table 1, duplicate, read-out: Kinase Enzymatic IC50 Pim-1
[2] = Table 2, mean of n ≥ 3, read-out: IC50 Pim-1

T5 sequence (P22518 whole entry): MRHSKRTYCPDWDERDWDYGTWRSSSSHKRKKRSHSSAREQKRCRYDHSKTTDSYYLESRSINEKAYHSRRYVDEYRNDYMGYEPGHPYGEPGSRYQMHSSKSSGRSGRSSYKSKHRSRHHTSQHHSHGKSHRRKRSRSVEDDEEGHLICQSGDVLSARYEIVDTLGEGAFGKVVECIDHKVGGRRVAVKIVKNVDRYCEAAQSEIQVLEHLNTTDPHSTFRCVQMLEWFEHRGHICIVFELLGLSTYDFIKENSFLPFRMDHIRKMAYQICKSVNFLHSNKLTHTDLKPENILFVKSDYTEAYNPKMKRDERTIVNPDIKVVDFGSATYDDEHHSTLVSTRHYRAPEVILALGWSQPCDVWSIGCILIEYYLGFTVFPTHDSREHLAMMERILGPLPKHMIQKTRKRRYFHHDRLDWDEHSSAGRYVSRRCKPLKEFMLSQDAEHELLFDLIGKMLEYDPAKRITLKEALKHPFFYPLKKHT
T4 sequence (Q9P1W9 whole entry): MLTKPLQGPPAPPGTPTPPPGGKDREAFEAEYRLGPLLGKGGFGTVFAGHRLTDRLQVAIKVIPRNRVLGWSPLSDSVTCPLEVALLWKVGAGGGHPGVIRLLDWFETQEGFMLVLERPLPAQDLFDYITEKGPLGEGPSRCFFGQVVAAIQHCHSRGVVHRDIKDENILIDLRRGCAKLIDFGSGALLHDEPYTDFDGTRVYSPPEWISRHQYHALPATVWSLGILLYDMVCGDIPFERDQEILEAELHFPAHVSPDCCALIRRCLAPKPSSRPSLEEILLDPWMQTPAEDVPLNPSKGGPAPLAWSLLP
T1 sequence (P11309 whole entry): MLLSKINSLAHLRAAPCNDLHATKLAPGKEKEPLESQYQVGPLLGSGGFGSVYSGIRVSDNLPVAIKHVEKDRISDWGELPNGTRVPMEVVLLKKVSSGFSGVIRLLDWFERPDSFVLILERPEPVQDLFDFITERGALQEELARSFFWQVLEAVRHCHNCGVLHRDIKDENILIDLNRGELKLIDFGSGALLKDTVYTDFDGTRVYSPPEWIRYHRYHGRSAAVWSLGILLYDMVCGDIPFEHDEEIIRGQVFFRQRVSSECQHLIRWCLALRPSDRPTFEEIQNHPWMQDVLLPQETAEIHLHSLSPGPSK
T2 sequence (Q00535 whole entry): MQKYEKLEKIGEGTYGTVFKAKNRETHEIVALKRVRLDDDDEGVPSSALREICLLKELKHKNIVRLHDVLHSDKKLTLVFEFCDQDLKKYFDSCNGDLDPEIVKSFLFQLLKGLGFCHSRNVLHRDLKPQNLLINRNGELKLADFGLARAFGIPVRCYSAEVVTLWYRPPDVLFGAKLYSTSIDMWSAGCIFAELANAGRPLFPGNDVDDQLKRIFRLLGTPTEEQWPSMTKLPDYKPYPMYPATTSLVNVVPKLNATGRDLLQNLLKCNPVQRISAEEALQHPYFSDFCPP
T2 sequence (Q15078 99-307 partner limits assumed): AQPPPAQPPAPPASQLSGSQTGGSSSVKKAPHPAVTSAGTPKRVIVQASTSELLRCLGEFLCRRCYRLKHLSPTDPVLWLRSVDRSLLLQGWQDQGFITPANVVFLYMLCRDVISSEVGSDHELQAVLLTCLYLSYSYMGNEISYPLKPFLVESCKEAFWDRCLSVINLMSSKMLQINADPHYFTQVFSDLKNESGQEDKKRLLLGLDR
T3 sequence (P50750 whole entry): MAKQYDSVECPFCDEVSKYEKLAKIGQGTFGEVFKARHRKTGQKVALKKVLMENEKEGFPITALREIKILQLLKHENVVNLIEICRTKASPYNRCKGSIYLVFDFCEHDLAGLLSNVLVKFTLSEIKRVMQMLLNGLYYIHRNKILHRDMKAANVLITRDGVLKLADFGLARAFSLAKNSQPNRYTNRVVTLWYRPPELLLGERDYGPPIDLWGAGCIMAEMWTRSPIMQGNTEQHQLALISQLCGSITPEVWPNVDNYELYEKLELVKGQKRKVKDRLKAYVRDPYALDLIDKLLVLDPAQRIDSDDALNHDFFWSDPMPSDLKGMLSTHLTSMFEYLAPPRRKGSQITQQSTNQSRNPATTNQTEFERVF
T3 sequence (O60563 whole entry partner): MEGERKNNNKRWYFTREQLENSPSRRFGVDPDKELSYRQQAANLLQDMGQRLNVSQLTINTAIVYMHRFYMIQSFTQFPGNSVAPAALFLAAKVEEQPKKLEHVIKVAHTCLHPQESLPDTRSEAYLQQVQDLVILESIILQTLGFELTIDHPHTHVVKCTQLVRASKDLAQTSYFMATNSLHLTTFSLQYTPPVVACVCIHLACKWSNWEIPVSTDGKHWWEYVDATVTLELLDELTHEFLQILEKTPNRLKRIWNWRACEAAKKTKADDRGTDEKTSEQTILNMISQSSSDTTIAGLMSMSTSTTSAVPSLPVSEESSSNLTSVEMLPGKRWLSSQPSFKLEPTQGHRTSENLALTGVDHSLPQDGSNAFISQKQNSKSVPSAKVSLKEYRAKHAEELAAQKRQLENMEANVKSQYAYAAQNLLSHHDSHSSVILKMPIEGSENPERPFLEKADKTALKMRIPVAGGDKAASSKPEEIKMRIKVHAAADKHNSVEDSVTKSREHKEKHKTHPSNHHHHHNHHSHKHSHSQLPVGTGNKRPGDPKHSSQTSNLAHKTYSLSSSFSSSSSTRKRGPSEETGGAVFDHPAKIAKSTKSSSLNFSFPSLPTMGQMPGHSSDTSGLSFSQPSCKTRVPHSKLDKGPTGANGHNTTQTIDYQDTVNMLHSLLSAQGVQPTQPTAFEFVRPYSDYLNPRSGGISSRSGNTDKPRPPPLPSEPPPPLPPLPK

SMILES	IC50 (HsPim-1; [1])	melting point	IC50 (HsPim-1; [2])	IC50 (MV4-11 cells)	IC50 (K562 cells)	IC50 (KU812 cells)	IC50 (HeLa cells)	IC50 (MCF-7 cells)	IC50 (L929 cells)	IC50 (HsCDK5/p25)	IC50 (HsCDK9/CyclinT)	IC50 (HsPim-2)	IC50 (MmCLK1)	IC50 MV4-11 (MV4-11 cells; 48 h)
COc1cc(OC)c2c(oc3c([N+](=O)[O-])cccc32)c1C(N)=O [Compound 14, 1,3-Dimethoxy-6-nitrodibenzo[b,d]furan-4-carboxamide]	3.21 µM	298 to 299 °C												
NC(=O)c1c(O)cc(O)c2c1oc1c([N+](=O)[O-])cccc12 [Compound 15, 1,3-Dihydroxy-6-nitrodibenzo[b,d]furan-4-carboxamide]	0.18 µM	> 300 °C	0.18 µM	30.7 ± 1.1 µM	> 100 µM	78.4 ± 2.1 µM	24.7 ± 6.7 µM	> 100 µM	49.2 ± 1 µM					
NC(=O)c1c(O)cc(O)c2c1oc1c(N)cccc12 [Compound 16, 6-Amino-1,3-dihydroxydibenzo[b,d]furan-4-carboxamide]	0.13 µM		0.13 µM	10.1 ± 0.8 µM	> 100 µM	> 100 µM	14.6 ± 7.2 µM	> 100 µM	> 100 µM	> 10 µM	> 10 µM	0.085 µM	0.45 µM	
NC(=O)c1c(O)cc(O)c2c1oc1ccccc12 [Compound 17, 1,3-Dihydroxydibenzo[b,d]furan-4-carboxamide]	0.23 µM	219 to 220 °C	0.23 µM	14.3 ± 1.1 µM	> 100 µM	> 100 µM	9.5 ± 4.1 µM	> 100 µM	> 100 µM				0.26 µM	
COc1cc(OC)c2c(oc3c(N)cccc32)c1C(N)=O [Compound 18, 6-Amino-1,3-dimethoxydibenzo[b,d]furan-4-carboxamide]	> 10 µM	293 to 294 °C												
COc1cc(OC)c2c(oc3ccccc32)c1C(N)=O [Compound 19, 1,3-Dimethoxydibenzo[b,d]furan-4-carboxamide]	> 10 µM	296 to 297 °C												
COc1cc2oc3c(C(N)=O)c(OC)cc(OC)c3c2cc1C(C)=O [Compound 38, 8-Acetyl-1,3,7-trimethoxydibenzo[b,d]furan-4-carboxamide]	> 10 µM													
COc1ccc2c(c1)oc1c(C(N)=O)c(OC)cc(OC)c12 [Compound 39, 1,3,7-Trimethoxydibenzo[b,d]furan-4-carboxamide]	> 10 µM	332 to 333 °C												
COc1cc(OC)c2c(oc3ccc(C(C)=O)cc32)c1C(N)=O [Compound 40, 8-Acetyl-1,3-dimethoxydibenzo[b,d]furan-4-carboxamide]	> 10 µM	237 to 238 °C												
COc1cc(OC)c2c(oc3ccc(C(F)(F)F)cc32)c1C(N)=O [Compound 42, 1,3-Dimethoxy-8-(trifluoromethyl)dibenzo[b,d]furan-4-carboxamide]	> 10 µM	250 to 251 °C												
CC(=O)c1cc2c(cc1O)oc1c(C(N)=O)c(O)cc(O)c12 [Compound 43, 8-Acetyl-1,3,7-trihydroxydibenzo[b,d]furan-4-carboxamide]	0.82 µM	335 to 336 °C	0.82 µM	52.2 ± 1.7 µM	> 100 µM	> 100 µM	57.1 ± 7.6 µM	> 100 µM	> 100 µM			0.14 µM		
NC(=O)c1c(O)cc(O)c2c1oc1cc(O)ccc12 [Compound 44, 1,3,7-Trihydroxydibenzo[b,d]furan-4-carboxamide]	0.06 µM		0.06 µM	2.6 ± 0.4 µM	75.7 ± 11.8 µM	42.1 ± 1.3 µM	10.2 ± 1.2 µM	52.5 ± 1.2 µM	28.4 ± 1.1 µM	> 10 µM	> 10 µM	0.035 µM	0.026 µM	
NC(=O)c1c(O)cc(O)c2c1oc1ccc(C(F)(F)F)cc12 [Compound 47, 1,3-Dihydroxy-8-(trifluoromethyl)dibenzo[b,d]furan-4-carboxamide]	> 1 µM and 2.35 µM	347 to 348 °C	2.35 µM	> 100 µM	> 100 µM	> 100 µM								inactive
CN1CCC(CNc2ccc3ncc(-c4cccc(OC(F)(F)F)c4)n3n2)CC1 [SGI-1776, reference compound]				0.03 ± 0.003 µM	3.7 ± 1.5 µM	3.5 ± 0.6 µM								
